Test results published in patent publication EP0533056A2, “Substituted aminopropanes, process for their preparation and their use as antimycotic agents” (HOECHST AKTIENGESELLSCHAFT, priority 1991, dated 1993).

Columns and labels:
[1] = tested on: Phospholipase von Candida albicans; test: Inhibition of released exoenzymes (phospholipase) of Candida albicans blastoconidia, egg-yolk agar plate, turbidity halo; assay type: cell-based; conditions: Candida albicans Stamm 200/175, in vitro
Experimental: Zur Feststellung der Enzymhemmung wurde eine Suspension von Candida albicans Blastokonidien (Stamm 200/175), wobei die Keimdichte photometrisch auf eine Extinktion von 0,5 (500 nm) eingestellt war, mit Präparatelösung bzw. zur Kontrolle mit Lösungsmittellösung vermischt und zwar • a) 100 µl Präparatelösung (Suspension) • + 900 µl Keimsuspension • b) 100 µl Lösungsmittel • + 900 µl Keimsuspension Jeweils 5 µl der 30 min bei 21 ° C inkubierten Blastokonidiensuspension wurden auf eine Agarplatte (Sabourand Agar mit Zusatz von 8 % Eigelb, 1 m NaCI, 5 mM CaC12) aufgetropft.
Die so beimpfte Platte wurde 3 Tage bei 37 ° C bebrütet.
Die Auswertung erfolgte derart, daß • 1. der Durchmesser (mm) der Candida albicans-Kolonie (behandelt und unbehandelt) sowie • 2. der Gasamtdurchmesser von Kolonie und Trübungshof, welcher durch Exoenzyme verursacht wurde (behandelt und unbehandelt), bestimmt wurde.
Aus der Bestimmung des Quotienten von Präparate- und Kontrollgruppe ergab sich ein Wert, der als Maß für die Enzymaktivität anzusehen war.

[2] = tested on: Trichophyton mentagrophytes; test: Percent killing of Trichophyton mentagrophytes in vitro; assay type: cell-based; conditions: nach 14 h in aqua dest., read-out: %-Abtötung von Trichophyton mentagrophytes
Text: Die pilzabtötende, antimykotische Wirksamkeit der Verbindungen wurde an einigen Beispielen (s. Tabelle 3) anhand der prozentualen Abtötung von Trichophyton mentagrophytes in vitro verifiziert (Standardpräparat Rilopirox als Vergleichssubstanz).

[3] = tested on: Phospholipase aus Leberzellen; conditions: in-vitro-Test, literature (Pappu A.S. et al., Biochem. Pharmacol. 34, 521-24, 1985); cited from earlier work

Compound	% Hemmung der Phospholipase ([1]; Konzentration 5 μm/ml) [%]	% Hemmung der Phospholipase ([1]; Konzentration 10 μm/ml) [%]	% Hemmung der Phospholipase ([1]; Konzentration 50 μm/ml) [%]	% Hemmung der Phospholipase ([1]; Konzentration 100 μm/ml) [%]	killing at 40 µg/mL [2] [%]	killing at 80 µg/mL [2] [%]	% Hemmung der Phospholipase ([1]; Konzentration 1 μm/ml) [%]	Hemmwirkung gegenüber Phospholipase aus Leberzellen [3]
CCCCCCCOc1ccc(OCC(O)(CNCc2ccccc2)C(C)(C)C)cc1 (centres unmarked) [1.19, 3-N-Benzylamino-2-t-butyl-1-(4-heptyloxy-phenyl-oxy)-2-propanol]	100	100	100	100	–	–	–	–
Cc1cc(COc2ccc(Oc3ccc(Cl)cc3)cc2)n(O)c(=O)c1 [Rilopirox, reference compound]	–	–	–	–	100	100	–	–
CCCCNCC(O)(COc1ccc(C(C)(C)C)cc1)c1ccc(-c2ccccc2)cc1 (centres unmarked) [1.15]	100	100	100	100	–	–	–	–
CCCCCCCCCCCCNCC(O)(COc1ccc(Oc2ccccc2)cc1)C(C)(C)C (centres unmarked) [1.34]	33.3	100	100	100	–	–	6.3	–
CC(C)NCC(O)(COc1ccc(Cl)cc1Cl)C(C)(C)C (centres unmarked) [1.7, 2-t-Butyl-1-(2,4-dichlorphenoxy)-3-isopropyl-amino-2-propanol]	–	20	–	100	–	–	–	–
CC(C)(C)CC(C)(C)c1ccc(OCC(O)(CNCc2ccc(Cl)cc2Cl)C(C)(C)C)cc1 (centres unmarked) [1.48]	100	100	100	100	–	–	14.3	–
CCCCCCCCCCCCNCC(O)(COc1ccc(C(C)(C)C)cc1)c1ccc(-c2ccccc2)cc1 (centres unmarked) [1.17]	100	100	100	100	97.8	100	–	–
CCCCCCCOc1ccc(OCC(O)(CNC(C)C)C(C)(C)C)cc1 (centres unmarked) [1.24]	100	100	100	100	–	–	–	–
CCCCCCCOc1ccc(OCC(O)(CNCc2ccc(OC)c(OC)c2)C(C)(C)C)cc1 (centres unmarked) [1.21]	–	100	100	100	–	–	–	–
CCCCCCCCCCCCNCC(O)(COc1ccc(OCCCCCCC)cc1)c1ccccc1 (centres unmarked) [1.53]	100	100	100	100	–	–	–	–
CC(C)NCC(O)COc1cccc2ccccc12 (centres unmarked) [Propranolol, reference compound]	–	–	–	30	–	–	–	wirksamste Substanz
CCCCCCCCCCCCNCC(O)(COc1ccc(OCCCCCCC)cc1)C(C)(C)C (centres unmarked) [1.23]	100	100	100	100	–	–	–	–
CCCCCCCOc1ccc(OCC(O)(CNCCCC)C(C)(C)C)cc1 (centres unmarked) [1.18]	100	100	100	100	–	–	–	–
CCCCCCCOc1ccc(OCC(O)(CNCCC(c2ccccc2)c2ccccc2)C(C)(C)C)cc1 (centres unmarked) [1.22]	–	10	100	100	–	–	–	–
CCCCNCC(O)(COc1ccc(C(C)(C)C)cc1)C(C)(C)C (centres unmarked) [1.11]	–	–	–	100	–	–	–	–
CC(C)(C)NCC(O)(COc1ccc(OCc2ccccc2)cc1)C(C)(C)C (centres unmarked) [1.5]	–	–	100	100	–	–	–	–
CC1(C)CC(NCC(O)(COc2ccc(Oc3ccccc3)cc2)C(C)(C)C)CC(C)(C)N1 (centres unmarked) [1.31]	7.7	100	100	100	–	–	–	–
